From ChEMBL document CHEMBL1201862, “PubChem BioAssay data set” (2004) come the findings set out here.

Test systems include A549; CAKI-1; HCT-15; HOP-62; K562; Malme-3M; NCI-H226; NCI-H460; OVCAR-4; OVCAR-5; RPMI-8226; SF-268; SK-MEL-2; SK-MEL-5; SNB-19; SNB-75; SW-620; U-251; UACC-257; SF-539.
Assay in all cases: inhibition of tumour cell growth, NCI panel, 48 h

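Assay format: 96-well plates, 48-hour exposure. GI50 is the concentration that inhibits growth by half.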 The source made the active and inactive calls. No stated cut-off is given here; in the data, active = GI50 up to about 1.1 µM and inactive = higher. Some results are limits rather than exact numbers.

Take `O=C(O)c1ccccc1C1c2ccccc2Oc2ccccc21`: the GI50 in the assay on A549 was 48.6 µM (inactive); in the assay on CAKI-1 it was 34.1 µM (inactive); with HCT-15, 36.9 µM; in the assay with HOP-62 it was 41.3 µM (inactive); in the assay on K562, 75.2 µM (inactive); in the assay with Malme-3M, 26.7 µM (inactive). The GI50 is 16.4 µM (inactive) with NCI-H226; 39.9 µM (inactive) with NCI-H460; 69.7 µM (inactive) in the assay with OVCAR-4; > 100 µM (inactive) in the assay on OVCAR-5; 54.6 µM (inactive) with RPMI-8226; 28.8 µM (inactive) in the assay on SF-268. The GI50 was 23.4 µM (inactive) in the assay with SK-MEL-2; 41.4 µM (inactive) with SK-MEL-5; 85.7 µM (inactive) with SNB-19; 22.6 µM (inactive) in the assay with SNB-75; > 100 µM (inactive) in the assay on SW-620; 35.2 µM (inactive) in the assay on U-251. For the same molecule, in the assay with UACC-257, the GI50 is > 100 µM (inactive).

Turning to `CN(C)CCCNc1ncnc2[nH]cnc12`, the GI50 in the assay with A549 was > 100 µM (inactive); with CAKI-1 it was > 100 µM (inactive); in the assay on HCT-15 it was > 100 µM; in the assay with HOP-62 it was > 100 µM (inactive); in the assay with K562, > 100 µM (inactive); in the assay on Malme-3M, > 100 µM (inactive). The GI50 in the assay with NCI-H226, with NCI-H460, with OVCAR-4, with OVCAR-5, with RPMI-8226 and in the assay on SF-268 was > 100 µM (inactive) each time. Moreover, the GI50 in the assay on SK-MEL-2, with SK-MEL-5, with SNB-19, in the assay with SW-620 and with U-251 was > 100 µM (inactive) each time.

For the molecule `CN(C)C=C1C(Cl)=C(C=O)CC(C=O)=C1Cl`, the GI50 in the assay with A549 was 86.9 µM (inactive); in the assay on CAKI-1, 11.3 µM (inactive); with HCT-15 it was 3.42 µM; with HOP-62 it was 23.7 µM (inactive); in the assay on K562 it was 3.03 µM (inactive); in the assay on Malme-3M, 10.4 µM (inactive). Besides, the GI50 is 20.7 µM (inactive) in the assay with NCI-H460; 14.4 µM (inactive) in the assay on OVCAR-4; 15.9 µM (inactive) in the assay with OVCAR-5; 2.39 µM (inactive) with RPMI-8226; 8.17 µM (inactive) in the assay on SF-268; 14.8 µM (inactive) in the assay on SF-539. In addition, the GI50 in the assay with SK-MEL-2 was 17.6 µM (inactive); in the assay with SK-MEL-5 it was 10.4 µM (inactive); in the assay on SNB-19, 14.3 µM (inactive); in the assay with SNB-75 it was 15.4 µM (inactive); in the assay with SW-620, 1.56 µM (inactive); in the assay with U-251, 11.4 µM (inactive). In the assay on UACC-257, the GI50 was 14.9 µM (inactive).

`CCOP(=O)(OCC)/C(C#N)=C/c1coc2cc(C)cc(C)c2c1=O`: the GI50 in the assay with A549, in the assay on CAKI-1, in the assay with HOP-62, with K562, with Malme-3M and in the assay on NCI-H226 was > 100 µM (inactive) in each case. For the same molecule, the GI50 in the assay on NCI-H460, in the assay on OVCAR-4, in the assay on OVCAR-5, in the assay on RPMI-8226, in the assay on SF-268 and in the assay with SK-MEL-2 was > 100 µM (inactive) each time. Further, the GI50 in the assay with SK-MEL-5, in the assay with SNB-19, in the assay with SNB-75, with SW-620, in the assay with U-251 and in the assay on UACC-257 was > 100 µM (inactive) in each case.

Consider `COC(=O)C12C3C=CC(O3)C1C1C=CC2O1` (stereo not given), for which the GI50 with A549 was > 100 µM (inactive); in the assay on HCT-15, > 100 µM; in the assay on K562, > 100 µM (inactive); in the assay on Malme-3M it was > 100 µM (inactive); in the assay with NCI-H226, > 100 µM (inactive); in the assay with NCI-H460, > 100 µM (inactive). The GI50 with OVCAR-5, in the assay on RPMI-8226, with SF-268, in the assay on SF-539, with SK-MEL-2 and with SK-MEL-5 was > 100 µM (inactive) throughout. The GI50 with SNB-19, in the assay on SW-620, in the assay on U-251 and in the assay with UACC-257 was > 100 µM (inactive) throughout.

`C=C[C@@]1(O)CCCC[C@@H]1CC(Sc1ccccc1)Sc1ccccc1`: the GI50 in the assay with A549 was 15.9 µM (inactive); in the assay on CAKI-1, 14.8 µM (inactive); with HCT-15, 17.1 µM; in the assay with HOP-62, 16 µM (inactive); with K562, 33 µM (inactive); in the assay on Malme-3M, 14.6 µM (inactive). In addition, the GI50 is 21.8 µM (inactive) with NCI-H226; 13.4 µM (inactive) with NCI-H460; 16.9 µM (inactive) with OVCAR-4; 18.8 µM (inactive) in the assay on OVCAR-5; 27.5 µM (inactive) with RPMI-8226; 15.5 µM (inactive) with SF-268. Moreover, the GI50 was 16 µM (inactive) with SK-MEL-2; 17.1 µM (inactive) in the assay on SK-MEL-5; 18 µM (inactive) in the assay with SNB-19; 13.7 µM (inactive) in the assay on SNB-75; 16.7 µM (inactive) in the assay with U-251; 17.4 µM (inactive) in the assay with UACC-257.

Regarding `CC1CCCN(CC(O)CN2CCCc3ccccc32)C1` (stereo not given), the GI50 was > 100 µM (inactive) in the assay on A549; > 100 µM (inactive) in the assay on CAKI-1; > 100 µM in the assay with HCT-15; > 100 µM (inactive) in the assay on HOP-62; > 100 µM (inactive) in the assay on K562; > 100 µM (inactive) with Malme-3M. Moreover, the GI50 in the assay on NCI-H226, with OVCAR-4, in the assay on OVCAR-5, in the assay on RPMI-8226, with SF-268 and in the assay on SK-MEL-2 was > 100 µM (inactive) in each case. For the same molecule, the GI50 in the assay with SK-MEL-5, in the assay on SNB-19, with SNB-75, with SW-620, in the assay with U-251 and with UACC-257 was > 100 µM (inactive) each time.

Consider `CC[P+]1(CC)CCCC1`, for which the GI50 was > 100 µM (inactive) with A549; > 100 µM (inactive) in the assay with CAKI-1; > 100 µM with HCT-15; > 100 µM (inactive) in the assay on HOP-62; > 100 µM (inactive) with K562; > 100 µM (inactive) in the assay with Malme-3M. Besides, the GI50 in the assay on NCI-H460, in the assay with OVCAR-4, with OVCAR-5, in the assay with RPMI-8226, in the assay with SF-268 and with SF-539 was > 100 µM (inactive) each time. The GI50 in the assay with SK-MEL-2, with SK-MEL-5, with SNB-19, with SNB-75, in the assay with SW-620 and in the assay with U-251 was > 100 µM (inactive) in each case. Moreover, the GI50 in the assay on UACC-257 was > 100 µM (inactive).

Take `NC(=O)C(=Cc1ccc(C(O)P(=O)(O)O)cc1)C(N)=O` (stereo not given): the GI50 in the assay on A549 was > 100 µM (inactive); with CAKI-1, > 100 µM (inactive); in the assay with HCT-15, > 100 µM; in the assay with HOP-62, > 100 µM (inactive); in the assay on K562, > 100 µM (inactive); in the assay with Malme-3M it was > 100 µM (inactive). The GI50 in the assay on NCI-H460, in the assay with OVCAR-4, with OVCAR-5, with RPMI-8226, in the assay on SF-539 and in the assay on SK-MEL-2 was > 100 µM (inactive) each time. The GI50 in the assay on SK-MEL-5, with SNB-19, in the assay on SNB-75, with SW-620, in the assay with U-251 and in the assay on UACC-257 was > 100 µM (inactive) in each case.

In the case of `CCOC(=O)CCCN`, the GI50 with A549 was > 100 µM (inactive); in the assay with CAKI-1, > 100 µM (inactive); in the assay with HCT-15 it was > 100 µM; with HOP-62, > 100 µM (inactive); in the assay with K562 it was > 100 µM (inactive); in the assay on Malme-3M, > 100 µM (inactive). In addition, the GI50 in the assay with NCI-H226, in the assay with NCI-H460, with OVCAR-4, with OVCAR-5, in the assay with RPMI-8226 and in the assay with SF-268 was > 100 µM (inactive) throughout. Also, the GI50 with SK-MEL-2, in the assay with SK-MEL-5, in the assay with SNB-19, in the assay on SNB-75, in the assay on SW-620 and in the assay on U-251 was > 100 µM (inactive) each time. In the assay with UACC-257, the GI50 is > 100 µM (inactive).

Turning to `C1CSC(=[N+]2CC[N+](=C3SCCS3)CC2)S1`, the GI50 in the assay with A549 is > 100 µM (inactive); with CAKI-1, > 100 µM (inactive); with HCT-15, > 100 µM; in the assay on HOP-62 it was > 100 µM (inactive); in the assay with K562, > 100 µM (inactive); with Malme-3M it was > 100 µM (inactive). Also, the GI50 with NCI-H460, with OVCAR-4, with OVCAR-5, in the assay on RPMI-8226, in the assay with SF-268 and in the assay on SF-539 was > 100 µM (inactive) in each case. Moreover, the GI50 in the assay on SK-MEL-2, in the assay with SK-MEL-5, with SNB-19, with SNB-75, in the assay with SW-620 and in the assay on U-251 was > 100 µM (inactive) throughout. The GI50 in the assay on UACC-257 is > 100 µM (inactive).
